# According to patent US9687486B2, “Methods of treating atherosclerosis or myeloproliferative neoplasms by administering a lyn kinase activator” (THE TRUSTEES OF COLUMBIA UNIVERSITY IN THE CITY OF NEW YORK, priority 2012, dated 2017):
# Where a SMILES comes first, the peptide text is derived from it. The star is where a group is joined. Cbz = O=C(OCc1ccccc1)*
# Tests used:
# c-MPL [1] = experiment: Cell surface c-MPL levels in MkPs by flow cytometry; assay type: cell-based, mouse; details: TPO 30 ng/ml
# Protocol: Detection of c-MPL from in vivo and in vitro experiments was performed as follows. After harvesting BM progenitor cells, RBCs were lysed and the cells were then resuspended in FACS buffer. Cells were then stained with a cocktail of lineage markers to allow negative selection of BM progenitor cells (Sca1, CD127, CD45R, CD19, CD11b, CD3e, TER-119, CD2, CD8, CD4, and Ly-6C/G; all FITC; eBioscience) and progenitor cell markers, ckit, CD16/CD32 (FcγRII/III), CD34, CD41 and c-MPL or isotype control and allowed to stain on ice for 30 mins. Cells were then washed and stained with a fluorescently conjugated secondary anti-rabbit antibody to detect the anti-c-MPL for a further 30 mins on ice. After this the cells were washed, resuspended in FACS buffer and run on the LSRII. MEPs were identified as lin^− ckit^+CD16/CD32^loCD34^loCD41^−, while MkPs were identified as lin^−ckit^+CD16/CD32^loCD34^loCD41^+.
# c-CBL = experiment: c-Cbl tyrosine phosphorylation in MkPs in response to TPO, flow cytometry; assay type: cell-based, mouse
# Protocol: BM progenitor cells were stimulated with TPO at the indicated concentration for the specified period of time at 37° C. and then immediately diluted with ice-cold buffer and placed on ice to prevent further changes in phosphorylation. Cells were then centrifuged and the pellet resuspended in BD fix buffer (BD Biosciences) for 10 mins on ice. The cells were washed with BD flow cytometry staining buffer, centrifuged and then resuspended in BD cytofix/perm buffer III for 20 mins. After this the cells were washed and resuspended in BD staining buffer and incubated with lineage (Sca1, CD127, CD45R, CD19, CD11b, CD3e, TER-119, CD2, CD8, CD4, and Ly-6G; all FITC; eBioscience) and progenitor cell markers, ckit, CD16/CD32 (FcγRII/III), CD34, CD41 and anti-phospho-c-Cbl ([…]/[…]; BD biosciences) or an isotype control for 30 mins on ice. The cells were then washed, resuspended in FACS buffer and run on an LSRII. Phosphorylated c-Cbl was normalized against isotype control staining.
# [2] = test system: LacZ-positive splenic cells; experiment: LacZ-positive splenic cells after phenylhydrazine injection; assay type: in vivo, mouse; details: Abcg4−/− mice on chow diet, 3 days after injections
# Description: FIG. 6. (A) Representative of LacZ staining of BM sections of WT or Abcg4^−/− mice fed chow diet. Megakaryocytes are indicated by black arrows while LacZ-positive cells are indicated by white arrows Original magnification 20×. (B) Lac-Z staining of spleen of WT and Abcg4^−/− mice fed the chow diet and (C) from Abcg4^−/− BM Ldlr^−/− recipient mice fed WTD for 12 weeks. (D) Representative LacZ staining of spleen sections and quantification of LacZ-positive splenic cells of Abcg4^−/− mice fed the chow diet 3 days after either vehicle or phenylhydrazine injections. Error bars are S.D (n=5). * P<0.05.
# Tissues and proximal aortas were serially paraffin sectioned and stained with H&E for morphological analysis as described^2. Aortic lesion size of each animal was calculated as the mean of lesion areas in 5 sections from the same mouse. Bone samples were decalcified with EDTA solution prior to cryosectioning. Von Willibrand Factor antibody (Dako, Catalog #A0082) was used to stain MKs. Lac-Z staining of frozen sections of mouse bone, spleen or proximal aorta was carried out using β-Galactosidase Staining Kit (Cell Signaling Technology, Danvers, Mass.).
# platelets = experiment: Platelet count after a single dose of recombinant TPO in chow-fed mice; assay type: in vivo, mouse; details: single dose TPO 50 μg/kg BW
# Protocol: FIG. 2. (A) Abcg4 mRNA expression in various types of BM and peripheral white blood cells in WT mice determined by q-PCR. (n=5). (B) Quantification of BM cell populations and (C) cell surface c-MPL levels of Ldlr^−/− recipient mice fed WTD for 12 weeks (n=5). (D) MK-CFU assay using HPCs harvested by FACS from WT or Abcg4^−/− mice. (E) Platelet count in the WT and Abcg4^−/− mice (n=5) receiving a single dose of TPO (50 μg/kg BW) or the vehicle control. The representative of two studies with similar results is shown. (F) Bodipy-cholesterol efflux from WT or Abcg4^−/− MkPs to CD (2 mM) or rHDL (20 μg/ml) for 2 hours (n=4). (G) Bodipy-cholesterol levels in WT or Abcg4^−/− MkPs following CD/Bodipy-cholesterol loading (n=4). (H) EdU incorporation into and (I) cell surface c-MPL of WT or Abcg4^−/− MkPs were determined by flow cytometry (n=4). Error bars are S.E.M. *P<0.05 WT versus Abcg4^−/− groups and ^P<0.05 for treatment effect.
# Mice and Treatments Abcg4^−/−, Abcg1 Abca1^−/−, and Abcg1^−/− mice were created as described (Wang, N. et al. 2006; Yvan-Charvet, L. et al. 2010) and used in this study. Abcg4^−/− mice have been backcrossed onto C57BL6/J mice for more than 10 generations. WT (C57BL/6J) and Ldlr^−/− (B6.12957-Ldlrtm1Her) were obtained from The Jackson Laboratory (Bar Harbor, Me.). […]
# CBCs were quantified using whole blood collected from the tail bleeding. […]
# p-STAT-5 and p-ERK1/2 = experiment: p-STAT5 and p-ERK1/2 levels in MkPs with or without TPO; assay type: cell-based, mouse; details: WT and Abcg4−/− MkPs; TPO 30 ng/ml for 10 minutes
# Protocol: FIG. 3. Shown are results all from WT, Abcg4^−/− or Lyn^−/− MkPs (n=4). (A) Quantification of tyrosine-phosphorylated c-CBL in response to TPO. (B) Tyrosine-phosphorylated c-CBL levels 5 min after TPO treatment and with or without pretreatment with CD (3 mM), CD-chol (3 mM CD) for 30 min or rHDL (20 μg apoA-I/ml) for 2 hours. (C) Tyrosine-phosphorylated c-CBL with or without 5 min TPO treatment or SU6656 pretreatment (10 μg/ml for 2 h). (D) Cell surface c-MPL with or without TPO or SU6656 treatment for 2 h. (E) Tyrosine-phosphorylated c-CBL (5 min in response to TPO). (F) cell surface c-MPL (2 h TPO treatment) with or without pretreatment with CD-chol (3 mM CD) for 30 min. (G) 16 h EdU incorporation in the presence of TPO and with or without CD (3 mM), CD-Chol (3 mM CD) pretreatment for 30 min or rHDL (20 μg/ml) for 16 h. (H) p-STAT-5 and p-ERK1/2 levels with or without TPO for 10 minutes. TPO was 30 ng/ml for all the assays shown. Error bars are S.E.M. *P<0.05 WT vs Abcg4^−/− TPO and ^P<0.05 for treatment effect.
# MkPs = experiment: MkP proliferation by EdU incorporation; assay type: cell-based, mouse; details: in the presence of TPO
# Protocol: FIG. 3. Shown are results all from WT, Abcg4^-/- or Lyn^-/- MkPs (n=4). (A) Quantification of tyrosine-phosphorylated c-CBL in response to TPO. (B) Tyrosine-phosphorylated c-CBL levels 5 min after TPO treatment and with or without pretreatment with CD (3 mM), CD-chol (3 mM CD) for 30 min or rHDL (20 μg apoA-I/ml) for 2 hours. (C) Tyrosine-phosphorylated c-CBL with or without 5 min TPO treatment or SU6656 pretreatment (10 μg/ml for 2 h). (D) Cell surface c-MPL with or without TPO or SU6656 treatment for 2 h. (E) Tyrosine-phosphorylated c-CBL (5 min in response to TPO). (F) cell surface c-MPL (2 h TPO treatment) with or without pretreatment with CD-chol (3 mM CD) for 30 min. (G) 16 h EdU incorporation in the presence of TPO and with or without CD (3 mM), CD-Chol (3 mM CD) pretreatment for 30 min or rHDL (20 μg/ml) for 16 […]-5 and p-ERK1/2 levels with or without TPO for 10 minutes. TPO was 30 ng/ml for all the assays shown. Error bars are S.E.M. *P<0.05 WT vs Abcg4^-/- TPO and ^P<0.05 for treatment effect. Blood leukocytes and BM HSPCs were stained and analyzed or sorted as described (Murphy, A. J. et al. 2011). Briefly, BM cells from the mouse femurs and tibias were stained with a cocktail of antibodies to lineage committed cells (CD45R, CD19, CD11b, CD3e, TER-119, CD2, CD8, CD4, Ly-6C/G: All FITC, eBioscience), antibodies to Sca1 (Pacific Blue) and ckit (APC Cy7) to identify HSPC populations and LSK (lin-, Sac1+ and ckit+) cells, and antibodies to CD16/CD32 (FcγRII/III), CD34 to separate CMP (lin-, Sca1-, ckit+, CD34int, […] (lin-, Sca1-, ckit+, CD34int, […] (lin-, Sca1-, ckit+, CD34lo, FcγRII/IIIlo). For DNA content analysis (G2M phase), BM cells were fixed, and stained with DAPI (Invitrogen) prior to flow cytometry analysis. To determine in vivo cell proliferation, EdU (Invitrogen) was injected into mice via the tail vein 24 hours prior to being sacrificed. Cells were immunostained as described above in preparation for flow cytometry. Cells were then fixed and permeabilized using 0.01% saponin (w/v; Fluka) and 1% FCS (v/v) in IC fixation buffer (eBiosciences) for 30 minutes. Cells were then washed and stained with Alexa Fluor-conjugated azides using the Click-iT system (Invitrogen). Proliferation was quantified as percentage of EdU^+ cells by flow cytometry.
# [3] = test system: total BM cells from WT or Abcg4−/− mice; experiment: MK-CFU assay with total BM cells, with or without CD pretreatment; assay type: cell-based, mouse; details: CD 3 mM pretreatment for 30 minutes
# Protocol: FIG. 13. (A) Fluorescence confocal microscopy of WT or Abcg4^−/− MkPs treated with CD/Bodipy-cholesterol (0.03 mM CD) for 30 min and (B) confocal microscopy and quantification of fillipin stained WT or Abcg4^−/− MkPs. Gene expression was determined by q-PCR in (C) MEPs or (D) GMPs from the WT or Abcg4^−/− BM Ldlr^−/− recipient mice (n=5) fed WTD for 12 weeks. Error bars are S.D (n=10). *P<0.05. (E) MK-CFU assays using total BM cells from WT or Abcg4^−/− mice with or without pretreatment with CD (3 mM) for 30 minutes. Error bars are S.E.M. *P<0.05.
# Primary BM HSPC cells obtained by FACS were plated in methylcellulose-based media (5000 cells/assay) containing TPO (50 ng/mL), IL-6 (20 ng/mL), and IL-3 (10 ng/mL) and incubated for 8 days according to manufacturer's protocol (Megacult-C, Stemcell Technologies). Cultures were fixed and the MK colonies visualized by staining for acethylcholinesterase activity. Nuclei were counterstained with Harris' hematoxylin. Colonies containing more than 3 megakaryocytes were scored as CFU-Mk.
# c-MPL [4] = target: T1, c-MPL (Mus musculus, UniProt Q08351); details: mice and other species; Broudy & Lin 2004; cited from earlier work
# T1 construct: increasing platelet counts in mice and other species; host or cells: mice (in vivo)
# T1 sequence (Q08351 26-625): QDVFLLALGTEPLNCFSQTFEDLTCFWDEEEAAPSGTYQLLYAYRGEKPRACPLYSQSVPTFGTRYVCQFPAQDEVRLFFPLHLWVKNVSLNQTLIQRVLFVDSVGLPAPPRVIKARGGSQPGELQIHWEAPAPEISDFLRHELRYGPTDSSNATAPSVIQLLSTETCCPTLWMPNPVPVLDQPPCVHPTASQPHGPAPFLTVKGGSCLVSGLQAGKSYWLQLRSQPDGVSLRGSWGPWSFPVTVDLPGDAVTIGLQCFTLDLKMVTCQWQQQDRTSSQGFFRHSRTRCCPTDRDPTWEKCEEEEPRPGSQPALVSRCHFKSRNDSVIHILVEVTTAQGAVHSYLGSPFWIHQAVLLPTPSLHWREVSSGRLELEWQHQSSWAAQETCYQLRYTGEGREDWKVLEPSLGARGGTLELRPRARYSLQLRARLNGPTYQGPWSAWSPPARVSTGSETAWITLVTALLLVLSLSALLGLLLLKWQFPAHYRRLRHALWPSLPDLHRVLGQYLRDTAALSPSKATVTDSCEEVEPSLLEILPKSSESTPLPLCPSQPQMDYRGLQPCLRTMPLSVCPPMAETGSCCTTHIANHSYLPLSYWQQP
compound,measurement,setting,value
CC(C)C[C@@H](C=O)NC(=O)[C@H](CC(C)C)NC(=O)[C@H](CC(C)C)NC(=O)OCc1ccccc1 [MG132] (Cbz-Leu-Leu-Leu-aldehyde),cell surface c-MPL levels,c-MPL [1]; WT MkPs,increased
CN(C)S(=O)(=O)c1ccc2c(c1)/C(=C/c1cc3c([nH]1)CCCC3)C(=O)N2 [SU6656],cell surface c-MPL levels,c-MPL [1]; WT and Abcg4−/− MkPs,increased
same,c-CBL tyrosine phosphorylation,c-CBL; WT and Abcg4−/− MkPs,markedly decreased
NNc1ccccc1 [phenylhydrazine],LacZ positive cells in the spleen,[2],marked expansion
"TPO: Thrombopoietin, growth factor regulating megakaryocyte/platelet lineage development (R&D Systems)",increase in platelets,platelets; chow-fed Abcg4−/− mice,2.1 fold
same,increase in platelets,platelets; chow-fed WT mice,1.4 fold
same,p-ERK1/2 levels,p-STAT-5 and p-ERK1/2,increased
same,p-STAT5 levels,p-STAT-5 and p-ERK1/2,increased
CCN(CC)CCO[C@H]1CC[C@@]2(C)C(=CC[C@@H]3[C@@H]2CC[C@]2(C)C(=O)CC[C@@H]32)C1 [U18666A],cell surface c-MPL levels,c-MPL [1]; Abcg4−/− MkPs,reversed
same,c-CBL tyrosine phosphorylation,c-CBL; Abcg4−/− MkPs,reversed
cyclodextrin [CD],cell surface c-MPL levels,c-MPL [1]; WT and Abcg4−/− MkPs,significantly reduced
same,c-CBL tyrosine phosphorylation,c-CBL; WT and Abcg4−/− MkPs,increased
same,MkP proliferation,MkPs; Lyn−/− MkPs,completely unresponsive
same,MkP proliferation,MkPs; WT MkPs,decreased
same,MkP proliferation,MkPs; WT and Abcg4−/− MkPs,significantly reduced
same,increase in megakaryocyte colonies associated with ABCG4 deficiency,[3],reversed
Romiplostim,platelet counts,c-MPL [4],increasing
